From article PMC8889550 (JACS Au, 2022)

Biological target: T1, horseradish peroxidase (HRP) (Armoracia rusticana, UniProt P00433)
T1 sequence (P00433 31-338): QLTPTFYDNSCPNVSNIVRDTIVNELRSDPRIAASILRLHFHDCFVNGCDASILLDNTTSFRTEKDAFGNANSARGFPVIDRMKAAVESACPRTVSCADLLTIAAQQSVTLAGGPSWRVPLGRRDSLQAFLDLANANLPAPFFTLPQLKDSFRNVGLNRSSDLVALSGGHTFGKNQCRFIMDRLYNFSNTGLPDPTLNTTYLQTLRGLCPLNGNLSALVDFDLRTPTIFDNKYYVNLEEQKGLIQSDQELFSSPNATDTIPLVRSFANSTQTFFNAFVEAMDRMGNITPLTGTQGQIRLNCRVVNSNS
Assay: coupled GOx/HRP cascade, Resorufin formation in plate reader
Type: biochemical
Details: 200 μM Amplex Red; H2O2 generated by GOx from glucose; DNA-functionalized enzyme

coupled GOx/HRP cascade, Resorufin formation in plate reader: Amplex Red → Resorufin catalyzed by HRP
SMILES: CC(=O)N1c2ccc(O)cc2Oc2cc(O)ccc21 [Amplex Red]
